The values below come from ChEMBL document CHEMBL1201862, “PubChem BioAssay data set” (2004).

Some test systems named below: SK-MEL-28; KM12; 786-0; LOX IMVI; OVCAR-4; HOP-62; MOLT-4; MDA-MB-435; OVCAR-5; EKVX; NCI-H23; Malme-3M; TK-10; T47D; MCF7; SK-MEL-2; U-251; NCI-H460; CAKI-1; A549.
Holding throughout (assay): NCI tumour cell line growth inhibition, 48 h

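Tested at 5 concentrations; 48 h exposure; 96-well plates; endpoints linearly interpolated, else capped at highest concentration. Abbreviation: GI50, concentration required for 50% inhibition of growth.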 Activity calls are given as the source filed them. Rule as the data show it: active = GI50 up to about 1.1 µM and inactive = higher.

For the compound `CC(Nc1ccc(Cl)cc1)c1ccncc1` (stereo not given), the GI50 in the experiment with SK-MEL-28 was > 100 µM (inactive); in the experiment on KM12, 22.3 µM (inactive); in the experiment with 786-0, > 100 µM (inactive); in the experiment with LOX IMVI, > 100 µM (inactive); with OVCAR-4, > 100 µM (inactive); in the experiment with HOP-62, > 100 µM (inactive). In addition, the GI50 in the experiment with MOLT-4 is 64.3 µM (inactive); with MDA-MB-435 it was > 100 µM (inactive); in the experiment on OVCAR-5, > 100 µM (inactive); with EKVX, 75.5 µM (inactive); in the experiment on NCI-H23, 56.8 µM (inactive); with Malme-3M, > 100 µM (inactive). Besides, the GI50 in the experiment on TK-10 is > 100 µM (inactive); in the experiment on T47D it was 42.3 µM (inactive); in the experiment with MCF7, > 100 µM (inactive); with SK-MEL-2, > 100 µM (inactive); in the experiment with U-251 it was > 100 µM (inactive); with NCI-H460, 36.8 µM (inactive). Also, the GI50 with CAKI-1 and in the experiment with A549 was > 100 µM (inactive) in each case.

For the compound `O=[N+]([O-])c1c(F)c(F)c2c(c1F)Nc1ccccc1S2`, the GI50 with SK-MEL-28 is 2.51 µM (inactive); with KM12 it was 4.49 µM (inactive); in the experiment with 786-0 it was 8.24 µM (inactive); in the experiment on LOX IMVI, 1.86 µM (inactive); with OVCAR-4, 2.58 µM (inactive); with HOP-62 it was 12.6 µM (inactive). Moreover, the GI50 is 2.61 µM (inactive) with MOLT-4; 4.81 µM (inactive) in the experiment on MDA-MB-435; 13 µM (inactive) with OVCAR-5; 6.44 µM (inactive) with EKVX; 2.63 µM (inactive) with NCI-H23; 5.55 µM (inactive) with Malme-3M. In addition, the GI50 in the experiment with TK-10 was 23.8 µM (inactive); with T47D it was 3.03 µM (inactive); in the experiment on MCF7 it was 5 µM (inactive); in the experiment with SK-MEL-2 it was 2.14 µM (inactive); in the experiment on U-251, 2.05 µM (inactive); in the experiment with NCI-H460, 6 µM (inactive). The GI50 is 3.99 µM (inactive) in the experiment on CAKI-1 and 19.2 µM (inactive) in the experiment with A549.

In the case of `O=C(O)c1ccccc1C1CCCc2c1[nH]c1ccccc21` (stereo not given), the GI50 is 96.6 µM (inactive) with SK-MEL-28; 36.7 µM (inactive) in the experiment on KM12; > 100 µM (inactive) with 786-0; 44.2 µM (inactive) in the experiment with LOX IMVI; 41.3 µM (inactive) in the experiment with OVCAR-4; > 100 µM (inactive) in the experiment with HOP-62. Also, the GI50 in the experiment with MOLT-4 is 27.2 µM (inactive); in the experiment on MDA-MB-435 it was 31.3 µM (inactive); in the experiment on OVCAR-5 it was > 100 µM (inactive); with EKVX it was 20.3 µM (inactive); in the experiment on NCI-H23, 74.1 µM (inactive); in the experiment on Malme-3M, 98.9 µM (inactive). The GI50 in the experiment with TK-10 was > 100 µM (inactive); in the experiment with T47D, 11.4 µM (inactive); in the experiment with MCF7, 30.1 µM (inactive); in the experiment on SK-MEL-2, 91.6 µM (inactive); in the experiment on U-251, 81.8 µM (inactive); with NCI-H460, 69.7 µM (inactive). The results for the GI50 with CAKI-1 and with A549 were 72.6 µM (inactive) and 79.3 µM (inactive), respectively.

Regarding `C=C(CCC(=O)N(CCc1c[nH]c2ccccc12)C(=O)c1ccccc1CSCC)C(=O)OC`, the GI50 in the experiment with SK-MEL-28 was > 100 µM (inactive); in the experiment on KM12, 8.2 µM (inactive); in the experiment with 786-0 it was 50 µM (inactive); with LOX IMVI, 29.2 µM (inactive); in the experiment on OVCAR-4, 50 µM (inactive); in the experiment on HOP-62, > 69.2 µM (inactive). Also, the GI50 in the experiment with MOLT-4 was 4.02 µM (inactive); with MDA-MB-435 it was 22 µM (inactive); in the experiment on OVCAR-5, > 100 µM (inactive); with EKVX it was 48.2 µM (inactive); in the experiment with NCI-H23 it was 31.9 µM (inactive); with Malme-3M it was 48.9 µM (inactive). Also, the GI50 with TK-10 was 66.5 µM (inactive); in the experiment with T47D, 21.9 µM (inactive); in the experiment on MCF7, 19.9 µM (inactive); with SK-MEL-2 it was 48.6 µM (inactive); in the experiment on U-251, 10.3 µM (inactive); in the experiment with NCI-H460 it was 32.2 µM (inactive). Besides, the GI50 was 84.1 µM (inactive) in the experiment with CAKI-1 and 27.1 µM (inactive) with A549.

For the compound `O=C1Cc2c(-c3ccccc3)cc(-c3ccc4ccccc4c3)nc2-c2ccccc2N1`, the GI50 with SK-MEL-28 is > 100 µM (inactive); with KM12, 4.89 µM (inactive); in the experiment on 786-0 it was 3.18 µM (inactive); in the experiment on LOX IMVI, 16.7 µM (inactive); in the experiment on OVCAR-4, 2.9 µM (inactive); in the experiment on HOP-62 it was 7.52 µM (inactive). In addition, the GI50 in the experiment with MOLT-4 is > 100 µM (inactive); in the experiment on MDA-MB-435 it was 17.2 µM (inactive); with OVCAR-5, 24.7 µM (inactive); with EKVX it was 7.16 µM (inactive); in the experiment on NCI-H23, 6.4 µM (inactive); in the experiment on Malme-3M, 7.06 µM (inactive). Besides, the GI50 was 12.3 µM (inactive) in the experiment with TK-10; 18 µM (inactive) in the experiment on T47D; 13.9 µM (inactive) in the experiment on MCF7; 43.9 µM (inactive) in the experiment on SK-MEL-2; 16.4 µM (inactive) with U-251; 11.4 µM (inactive) in the experiment with NCI-H460. The GI50 is 3.25 µM (inactive) in the experiment with CAKI-1 and 14.9 µM (inactive) in the experiment on A549.

Regarding `C/C=C(/C)C(=O)O[C@H]1[C@H](O)CC(c2ccc3c(c2O)C(=O)C2=C(O)C4(OC)C(=O)C(C(N)=O)=C(O)[C@H](CC(=O)c5ccccc5O)C4CC2[C@@]3(C)OC)O[C@@H]1C` (stereo not given in full), the GI50 in the experiment with SK-MEL-28 was 0.653 µM (active); in the experiment with KM12, 0.00647 µM (active); with 786-0, 0.00479 µM (active); in the experiment on LOX IMVI, 0.0035 µM (active); with OVCAR-4, 0.0849 µM (active); in the experiment with HOP-62, 0.00331 µM (active). In addition, the GI50 was 0.148 µM (active) with MOLT-4; 0.0187 µM (active) in the experiment on MDA-MB-435; 0.0546 µM (active) with OVCAR-5; 0.0396 µM (active) with EKVX; 0.00711 µM (active) with NCI-H23; 0.0182 µM (active) with Malme-3M. Besides, the GI50 is 0.00817 µM (active) with TK-10; 0.0113 µM (active) in the experiment on T47D; 0.00363 µM (active) with MCF7; 0.00621 µM (active) with SK-MEL-2; 0.00256 µM (active) in the experiment on U-251; 0.00178 µM (active) in the experiment on NCI-H460. For the same compound, the GI50 in the experiment on CAKI-1 is 0.0124 µM (active); with A549, 0.00311 µM (active).
